The values below come from publication PMC5147771, “High-Resolution Genetics Identifies the Lipid Transfer Protein Sec14p as Target for Antifungal Ergolines” (PLoS Genetics, 2016).

Like-named read-outs stand apart in the source and are kept apart here. Bounds are passed on as bounds.

One data set concerns S. cerevisiae. Put plainly: High-throughput screen of compound archive against S. cerevisiae. The note with it: Saccharomyces cerevisiae; validated hit of high-throughput screen. The format is cell-based.
Data set [1] concerns S. cerevisiae deletion strains. Description: Single strain growth inhibition of deletion strains (turbidity OD600). It counts as cell-based. The note with it: Saccharomyces cerevisiae, 24 h.
A further data set concerns S. cerevisiae BY4741. Put plainly: Phosphatidylinositol (PI) and phosphatidylcholine (PC) competition growth assay. Conditions: medium with 200 μM PI or 200 μM PC. The format is cell-based. The text has this:
To test this hypothesis, the S. cerevisisae x-ray structure of Sec14p was used to dock the NGx04 ligand into the lipid-binding cavity (Fig 3B). In the resulting docking model, the ester moiety of the ligand formed an H-bond with Y111 while the ergoline amine formed an H-bond with T175. The ergoline moiety also made van der Waals interactions with the residues Y122, Y151, S173, M177 and F212. The calculated docking model was in agreement with the experimental data from the mutagenesis study, as three of the four identified resistance conferring mutations were directly involved in ligand interactions (Y111, Y151 and S173) and the identified V154 residue, although not directly involved in ligand interactions, was only 4.5 Å away from NGx04. The model outlines that a larger residue at this position like Isoleucine would be deleterious for ligand binding. As our docking experiment was biased towards the lipid-binding cavity we aimed at further supporting evidence for NGx04 binding in this protein pocket. To do so we tested if NGx04 would compete for phospholipid-binding in the Sec14p cavity. […]
S. cerevisiae BY4741 (Open Biosystems) was grown in YPD medium in the absence or presence of additional phosphatidylinositol or phosphatidylcholine (200 μM each, Sigma-Aldrich 79401 or P3556, respectively). OD600 values of exponentially growing yeast cultures were recorded with a robotic system. […]

In data set [2] the test system is 512 human cancer cell lines. Description: Cancer Cell Line Encyclopedia proliferation assay. The format is cell-based. The text has this:
(§1) One key requirement of antifungal medicines is selective inhibition of the pathogen over the mammalian host. To explore potential undesired activity of NGx04 against mammalian cells we used the Cancer Cell Line Encyclopedia CCLE, a collection of 512 human cancer cell lines (broadinstitute.org/ccle). Dose-response curves for NGx04 were generated in a proliferation assay and IC50 values determined. […] Since HepG2 cells are known to be a suitable tool to profile toxicity of compounds [40], we used this liver-derived line to assess cytotoxicity of NGx04. […] 16 of 21 amino acid residues within a 5 Å radius from any atom of the docked Ngx04 ligand were not conserved between the two proteins. Critical differences in the active site of the human protein are the residues F178, C128, I151 and L186 (corresponding to S201, Y151, T175 and M209 in yeast) which form a smaller and more hydrophobic pocket compared to the yeast protein (Fig 4C). […]
(§2) Fig 4 Fungal selectivity. […] A) Dose-response curves for NGx04 were generated in growth inhibition assay and IC50 values determined in duplicates. […]
(§3) Profiling across the Cancer Cell Line Encyclopedia was performed as described previously. MTS toxicity was determined using a CellTiter 96 AQueous One Solution Cell Proliferation Assay kit from Peomega.

The nature of the next data set: MTS cytotoxicity assay. It counts as cell-based. Conditions: human, HepG2 cells, triplicates, logistic regression.
Description: as §1, §2, §3
A general note: Tetrazolium assays rely on reduction of a dye to a coloured formazan, in cell work by metabolically active cells.

The test system of another data set is C. neoformans ATCC 36556. Put plainly: C. neoformans growth inhibition (CLSI M27-A3 broth microdilution). Conditions: for MIC: Cryptococcus neoformans, ATCC36556, 72 h. It counts as cell-based. The text has this:
(§4) Sec14p is reported to be essential for virulence as well as for growth in C. neoformans. The S. cerevisiae and C. neoformans proteins show 53% similarity by pair-wise alignment with higher conservation of the residues in the lipid-binding pocket (S2 Fig). Furthermore, three of the four sites identified to be critical for NGx04 sensitivity, are conserved (S2 Fig). In combination with the current high unmet medical need related to Cryptococcus infections we prioritized testing of NGx04 and 18 related ergoline scaffold analogs against this pathogen. Two clinical isolates of C. neoformans (ATCC 36556 and ATCC 90113) were plated in triplicates on increasing drug concentrations and MIC-2 (50% inhibition) and MIC-0 (no visible fungal growth) concentrations were scored after 72 hrs. (Fig 5).
(§5) C. neoformans strains ATCC 36556, a lung isolate, and ATCC 90113, a cerebrospinal fluid isolate, were purchased from ATCC, Manassas, VA (USA). BPY22 was obtained from.
(§6) Antifungal susceptibility testing was conducted according to the Clinical and Laboratory Standards Institute (CLSI) guidelines for broth microdilution assay M27-A3. Testing was performed in RPMI-1640 (HyClone) with 2.05 mM glutamine, phenol red, without bicarbonate and buffered with 0.165 mol/l 3-(N-morpholino) propanesulfonic acid (MOPS). The medium was adjusted to pH 7.0 and sterilized with a 0.2 μm filter. Two endpoints were recorded: MIC-0 (complete inhibition with no visible fungal growth) and MIC-2 (prominent inhibition corresponding to >50% growth reduction).
On the technique in general: Dilution methods test growth across graded concentrations, often in twofold steps.

The subject of the next data set is C. neoformans ATCC 90113. The data set is described as above. It counts as cell-based. The note with it: 72 h, triplicate values printed singly; for MIC: Cryptococcus neoformans, ATCC90113, 72 h.
Description: as §4, §5, §6

The test system of data set [3] is wild type yeast carrying plasmid SEC14 variants. Put plainly: Growth inhibition titration of yeast re-transformed with plasmids coding for SEC14 variants. The note with it: Saccharomyces cerevisiae, 18 h.
Description: A plasmid containing the wild type copy of SEC14 was used as control to exclude resistance due to SEC14 gene copy-number effects.
B) The plasmids coding for various SEC14 proteins were re-transformed into a fresh wild type yeast strain and serial dilutions of the cultures spotted on either 150 μM of NGx04 or DMSO control, incubated for 3 days at 30°C and scored for growth. C) The strains were grown for 24 h in the presence of increasing concentrations of NGx04 and growth measured by turbidity (OD600). Duplicate values were determined and the 18 h time point was used for logistic regression.
Data set [4] is described as follows: Artificial membrane permeability assay. It counts as in vitro ADME. Conditions: PAMPA, to assess blood brain barrier penetration. The method, then: Invasion of the central nervous system by C. neoformans is a prerequisite for fungal meningitis. We thus performed artificial membrane permeability assays in order to assess the potential of the cryptococcal active compounds to penetrate the blood brain barrier (S7 Fig). […] High permeability of ergolines is expected, as members of the ergoline class are used as psychedelic narcotics since their discovery.
Metabolic stability was determined as described previously on a fully automated platform, the artificial membrane permeability assays was performed as described previously
Supplementary file pgen.1006374.s007.eps: S7 Fig Physicochemical properties of ergolines. Rat liver microsome and artificial membrane permeability assay. NGx04 and close analogues were tested for metabolic stability (CYP MetCL) and artificial membrane permeability (logPAMPA) in duplicates. Value pairs are color coded and binning is indicated. (EPS) Click here for additional data file.
In general terms: The PAMPA barrier holds no transporters, so it reflects passive diffusion.

Where [5] appears, read: 50% inhibition, 72 h, triplicate values printed singly, read-out: ATCC36556 MIC-2.
[6] abbreviates: no visible fungal growth, 72 h, triplicate values printed singly, read-out: ATCC36556 MIC-0.
[7] abbreviates: 50% inhibition, read-out: ATCC90113 MIC-2.
The mark [8] stands for this setting: no visible fungal growth, read-out: ATCC90113 MIC-0.

As to `COC(=O)C1CC2c3ccc([N+](=O)[O-])c4c3C(CC2N(C)C1)CN4C(=O)OCC(Cl)(Cl)Cl` (stereo not drawn) [NGx04], the IC50 with S. cerevisiae was below 20 µM; in [1] (read-out: IC50, strain KES1/kes1), 18.9 µM; in [1] (read-out: IC50, strain SEC14/sec14) it was 6.3 µM; in data set [1] (read-out: IC50, strain ho/ho), 11.8 µM; in data set [1] (read-out: IC50, strain itr1/itr1), 5.2 µM; in data set [1] (read-out: IC50, strain spo14/spo14), 4.4 µM. In addition, the IC50 in data set [1] (read-out: IC50, strain srf1/srf1) was determined as 3.8 µM; in “MTS cytotoxicity assay” it was 158 µM; in data set [3] (read-out: IC50, SEC14 S173A) it was 318 µM; in data set [3] (read-out: IC50, SEC14 V154I) it was 225 µM; in data set [3] (read-out: IC50, SEC14 WT plasmid), 41.1 µM. Moreover, the “effect of excess PI or PC on growth inhibition” value in the data set with S. cerevisiae BY4741 is on record as “alleviate NGx04-mediated growth inhibition”. For the same compound, the cell lines sensitive result in data set [2] (share of cell lines, sensitive defined by Amax <50% and IC50 <30 μM) was “one fourth”. Further, in [2] (share of the tested CCLE cell lines), the “cell lines not notably affected / not significantly inhibited” value came to 76%. In addition, the MIC in the data set on C. neoformans ATCC 36556 (setting [5]) is 25 µg/mL; in the data set with C. neoformans ATCC 36556 (setting [6]) it was 50 µg/mL; with C. neoformans ATCC 90113 (setting [7]) it was 25 µg/mL; in the data set on C. neoformans ATCC 90113 (setting [8]), above 50 µg/mL. Besides, the “C. neoformans growth inhibition (in words)” value in the data set on C. neoformans ATCC 36556 (clinical isolates ATCC 36556 and ATCC 90113, tested dose range) is listed as “inhibit C. neoformans growth”. For the same compound, the “ATCC36556 MIC-0” value in the data set with C. neoformans ATCC 36556 (no visible fungal growth, 72 h, triplicate values printed singly) is above 50 µg/mL.
`CC(C)N1CC(C(=O)O)CC2c3cccc4c3C(CC21)CN4C(=O)OC(C)(C)C` (stereo not drawn) [NGx13]: the “ATCC36556 MIC-2” value in the data set on C. neoformans ATCC 36556 (50% inhibition, 72 h, triplicate values printed singly) was 13 µg/mL. Moreover, the MIC with C. neoformans ATCC 36556 (setting [5]) was 25 µg/mL; in the data set with C. neoformans ATCC 36556 (setting [6]), above 50 µg/mL; in the data set with C. neoformans ATCC 90113 (setting [7]), above 50 µg/mL; with C. neoformans ATCC 90113 (setting [8]), above 50 µg/mL. Further, the “ATCC90113 MIC-2” value in the data set with C. neoformans ATCC 90113 (50% inhibition) is 50 µg/mL. Also, in [4], the artificial membrane permeability result is given as “exception”.

As usually defined, the MIC is the lowest concentration found to suppress growth.
